# Laboratory results reported in PubChem BioAssay (NCI).
#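 Assay format: 96-well plates, 48-hour exposure. TGI: total growth inhibition.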
# Key:
# Test in all cases: NCI-60 cell line screen, 48 h
# [1] = system: 786-0 renal
# [2] = system: A549 NSCLC
# [3] = system: ACHN renal
# [4] = system: BT-549 breast
# [5] = system: CAKI-1 renal
# [6] = system: CCRF-CEM leukemia
# [7] = system: COLO 205 colon
# [8] = system: DU-145 prostate
# [9] = system: EKVX NSCLC
# [10] = system: HCC-2998 colon
# [11] = system: HCT-116 colon
# [12] = system: HCT-15 colon
# [13] = system: HOP-62 NSCLC
# [14] = system: HOP-92 NSCLC
# [15] = system: HS 578T breast
# [16] = system: HT29 colon
# [17] = system: IGROV1 ovarian
# [18] = system: K-562 leukemia
# [19] = system: KM12 colon
# [20] = system: LOX IMVI melanoma
# [21] = system: M14 melanoma
# [22] = system: MALME-3M melanoma
# [23] = system: MCF7 breast
# [24] = system: MDA-MB-231 breast
# [25] = system: MDA-MB-435
# [26] = system: MDA-N
# [27] = system: MOLT-4 leukemia
# [28] = system: NCI-H23 lung
# [29] = system: NCI-H460 lung
# [30] = system: NCI-H522 lung
# [31] = system: OVCAR-4 ovarian
# [32] = system: OVCAR-5 ovarian
# [33] = system: OVCAR-8 ovarian
# [34] = system: PC-3 prostate
# [35] = system: RXF 393 renal
# [36] = system: SF-268 CNS
# [37] = system: SF-295 CNS
# [38] = system: SK-MEL-2 melanoma
# [39] = system: SK-MEL-28 melanoma
# [40] = system: SK-MEL-5 melanoma
# [41] = system: SK-OV-3 ovarian
# [42] = system: SN12C renal
# [43] = system: SNB-19 CNS
# [44] = system: SNB-75 CNS
# [45] = system: SR leukemia
# [46] = system: SW-620 colon
# [47] = system: T-47D breast
# [48] = system: TK-10 renal
# [49] = system: U251 CNS
# [50] = system: UACC-257 melanoma
# [51] = system: UACC-62 melanoma
# [52] = system: UO-31 renal
# [53] = system: A498 renal
# [54] = system: HL-60(TB) leukemia
# [55] = system: NCI-H226 lung
# [56] = system: NCI/ADR-RES ovarian
# [57] = system: OVCAR-3 ovarian
# [58] = system: RPMI-8226 leukemia
# [59] = system: SF-539 CNS
structure (smiles),measurement,setting,value
COC(=O)CSC1CC(=O)c2c(Cl)sc(Cl)c21 (stereo not given),TGI,[1],> 100 µM
same,TGI,[2],> 100 µM
same,TGI,[3],> 100 µM
same,TGI,[4],> 100 µM
same,TGI,[5],> 100 µM
same,TGI,[6],> 100 µM
same,TGI,[7],> 100 µM
same,TGI,[8],> 100 µM
same,TGI,[9],> 100 µM
same,TGI,[10],> 100 µM
same,TGI,[11],> 100 µM
same,TGI,[12],> 100 µM
same,TGI,[13],> 100 µM
same,TGI,[14],> 100 µM
same,TGI,[15],> 100 µM
same,TGI,[16],> 100 µM
same,TGI,[17],> 100 µM
same,TGI,[18],> 100 µM
same,TGI,[19],> 100 µM
same,TGI,[20],> 100 µM
same,TGI,[21],> 100 µM
same,TGI,[22],> 100 µM
same,TGI,[23],> 100 µM
same,TGI,[24],> 100 µM
same,TGI,[25],> 100 µM
same,TGI,[26],> 100 µM
same,TGI,[27],> 100 µM
same,TGI,[28],> 100 µM
same,TGI,[29],> 100 µM
same,TGI,[30],> 100 µM
same,TGI,[31],> 100 µM
same,TGI,[32],> 100 µM
same,TGI,[33],> 100 µM
same,TGI,[34],> 100 µM
same,TGI,[35],> 100 µM
same,TGI,[36],> 100 µM
same,TGI,[37],> 100 µM
same,TGI,[38],> 100 µM
same,TGI,[39],> 100 µM
same,TGI,[40],> 100 µM
same,TGI,[41],> 100 µM
same,TGI,[42],> 100 µM
same,TGI,[43],> 100 µM
same,TGI,[44],> 100 µM
same,TGI,[45],> 100 µM
same,TGI,[46],> 100 µM
same,TGI,[47],> 100 µM
same,TGI,[48],> 100 µM
same,TGI,[49],> 100 µM
same,TGI,[50],> 100 µM
same,TGI,[51],> 100 µM
same,TGI,[52],> 100 µM
O=[N+]([O-])c1cccc(-c2ncnc(-c3cccc([N+](=O)[O-])c3)n2)c1,TGI,[1],> 100 µM
same,TGI,[53],> 100 µM
same,TGI,[2],> 100 µM
same,TGI,[4],> 100 µM
same,TGI,[5],93.3 µM
same,TGI,[7],> 100 µM
same,TGI,[8],> 100 µM
same,TGI,[9],> 100 µM
same,TGI,[10],> 100 µM
same,TGI,[11],> 100 µM
same,TGI,[54],> 100 µM
same,TGI,[13],37.5 µM
same,TGI,[14],57.2 µM
same,TGI,[15],> 100 µM
same,TGI,[16],> 100 µM
same,TGI,[17],> 100 µM
same,TGI,[18],> 100 µM
same,TGI,[19],> 100 µM
same,TGI,[20],> 100 µM
same,TGI,[21],> 100 µM
same,TGI,[22],> 100 µM
same,TGI,[23],> 100 µM
same,TGI,[24],98.2 µM
same,TGI,[25],> 100 µM
same,TGI,[26],> 100 µM
same,TGI,[27],> 100 µM
same,TGI,[55],> 100 µM
same,TGI,[28],> 100 µM
same,TGI,[30],> 100 µM
same,TGI,[56],> 100 µM
same,TGI,[57],> 100 µM
same,TGI,[32],> 100 µM
same,TGI,[33],> 100 µM
same,TGI,[34],> 100 µM
same,TGI,[58],> 100 µM
same,TGI,[35],62.8 µM
same,TGI,[36],> 100 µM
same,TGI,[37],> 100 µM
same,TGI,[38],> 100 µM
same,TGI,[39],> 100 µM
same,TGI,[40],> 100 µM
same,TGI,[41],> 100 µM
same,TGI,[42],> 100 µM
same,TGI,[44],> 100 µM
same,TGI,[46],> 100 µM
same,TGI,[47],> 100 µM
same,TGI,[48],> 100 µM
same,TGI,[49],59.6 µM
same,TGI,[50],> 100 µM
same,TGI,[51],95.2 µM
same,TGI,[52],> 100 µM
CN(C)CCNC(=O)c1cnn(C)c1[N+](=O)[O-],TGI,[1],> 100 µM
same,TGI,[53],> 100 µM
same,TGI,[2],> 100 µM
same,TGI,[3],> 100 µM
same,TGI,[4],> 100 µM
same,TGI,[5],> 100 µM
same,TGI,[6],> 100 µM
same,TGI,[7],47.8 µM
same,TGI,[8],> 100 µM
same,TGI,[9],> 100 µM
same,TGI,[10],> 100 µM
same,TGI,[11],> 100 µM
same,TGI,[12],> 100 µM
same,TGI,[54],> 100 µM
same,TGI,[13],> 100 µM
same,TGI,[15],> 100 µM
same,TGI,[16],> 100 µM
same,TGI,[17],> 100 µM
same,TGI,[18],> 100 µM
same,TGI,[19],> 100 µM
same,TGI,[20],> 100 µM
same,TGI,[21],> 100 µM
same,TGI,[22],36.1 µM
same,TGI,[23],> 100 µM
same,TGI,[24],> 100 µM
same,TGI,[25],> 100 µM
same,TGI,[26],> 100 µM
same,TGI,[27],> 100 µM
same,TGI,[55],> 100 µM
same,TGI,[28],> 100 µM
same,TGI,[29],> 100 µM
same,TGI,[30],> 100 µM
same,TGI,[57],70.6 µM
same,TGI,[31],> 100 µM
same,TGI,[32],> 100 µM
same,TGI,[33],> 100 µM
same,TGI,[34],> 100 µM
same,TGI,[58],> 100 µM
same,TGI,[35],> 100 µM
same,TGI,[36],> 100 µM
same,TGI,[37],> 100 µM
same,TGI,[59],> 100 µM
same,TGI,[38],> 100 µM
same,TGI,[39],> 100 µM
same,TGI,[40],> 100 µM
same,TGI,[41],> 100 µM
same,TGI,[42],> 100 µM
same,TGI,[43],> 100 µM
same,TGI,[44],> 100 µM
same,TGI,[45],> 100 µM
same,TGI,[46],> 100 µM
same,TGI,[47],> 100 µM
same,TGI,[48],> 100 µM
same,TGI,[49],> 100 µM
same,TGI,[50],> 100 µM
same,TGI,[51],> 100 µM
same,TGI,[52],> 100 µM
